Legend:
[1] = tested on: C57BL/6J and C3H/HeJ primary bone marrow-derived macrophages
KiflC in NIH3T3 cells = details: cited from earlier work
Chain of KiflC in NIH3T3 cells (O35071 whole entry): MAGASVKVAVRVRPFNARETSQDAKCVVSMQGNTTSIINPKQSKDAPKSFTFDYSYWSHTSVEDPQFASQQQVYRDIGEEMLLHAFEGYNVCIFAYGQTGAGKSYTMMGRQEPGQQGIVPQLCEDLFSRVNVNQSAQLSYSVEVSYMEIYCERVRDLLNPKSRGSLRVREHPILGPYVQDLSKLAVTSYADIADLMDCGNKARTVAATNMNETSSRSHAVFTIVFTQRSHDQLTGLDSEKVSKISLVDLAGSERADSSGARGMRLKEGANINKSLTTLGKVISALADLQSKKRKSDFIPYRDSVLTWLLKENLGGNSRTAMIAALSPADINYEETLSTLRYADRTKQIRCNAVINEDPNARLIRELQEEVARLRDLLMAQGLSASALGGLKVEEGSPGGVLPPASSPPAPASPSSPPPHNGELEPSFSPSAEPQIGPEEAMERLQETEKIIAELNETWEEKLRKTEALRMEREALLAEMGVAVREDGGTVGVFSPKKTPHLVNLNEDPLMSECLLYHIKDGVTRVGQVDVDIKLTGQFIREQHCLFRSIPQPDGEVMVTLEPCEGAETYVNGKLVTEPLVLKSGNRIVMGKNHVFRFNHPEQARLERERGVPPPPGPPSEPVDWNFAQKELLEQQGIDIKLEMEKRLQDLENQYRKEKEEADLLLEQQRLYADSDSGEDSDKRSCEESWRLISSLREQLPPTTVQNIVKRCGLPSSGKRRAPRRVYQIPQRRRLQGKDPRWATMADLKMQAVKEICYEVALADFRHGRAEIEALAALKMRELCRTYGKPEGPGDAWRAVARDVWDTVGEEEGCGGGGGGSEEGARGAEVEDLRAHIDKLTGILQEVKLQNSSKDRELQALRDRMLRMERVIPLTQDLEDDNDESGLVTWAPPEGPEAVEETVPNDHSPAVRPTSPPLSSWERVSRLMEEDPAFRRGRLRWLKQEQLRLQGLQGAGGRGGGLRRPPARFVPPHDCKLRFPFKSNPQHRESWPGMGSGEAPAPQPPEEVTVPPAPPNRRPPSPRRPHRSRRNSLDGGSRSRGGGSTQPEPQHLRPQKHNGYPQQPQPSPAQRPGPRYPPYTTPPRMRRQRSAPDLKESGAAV

brefeldin A [BFA]
Susceptibility of susceptible macrophages to intoxication with LF in the presence of BFA [1]: unaltered | Relocalization of KiflC (KiflC in NIH3T3 cells): dramatic relocalization of KiflC to the Endoplasmic Reticulum

From patent US20040038222A1 (priority 2001, published 2004)
